Reference: publication PMC10724190, “Phytochemical screening and biological evaluation of Greek sage (Salvia fruticosa Mill.) extracts” (Scientific Reports, 2023)

Experiments:
[1] = molecular target: microbial XO (xanthine oxidase); experiment: Xanthine oxidase inhibitory activity, HPLC-PAD monitoring of uric acid formation; assay type: biochemical; settings: for IC50, mass of standard or dry weight of sample capable of reducing XO activity to 50%: 15 min preincubation, 60 min at 25 °C, xanthine substrate; for IC50: read-out: IC50 of XO inhibition as concentration
Description: The transformation of xanthine (substrate) to uric acid (product) by XO with or without the presence of tested samples was monitored with the use of HPLC-PAD at 285 nm (Fig. 3a). The enzyme activity was calculated as the percentage of the uric acid peak area formed in the presence of the tested sample compared to the control without the addition of the sample (Fig. 3b). The inhibition of the XO enzyme was expressed as an IC50 value, meaning the mass of standard or dry weight of sample (μg) capable of reducing enzyme activity to 50% (Fig. 3b,c).
The ability of – caffeic acid, carnosic acid, carnosol, rosmarinic acid, salvianolic acid B and scutellarin, as well as S. fruticosa extracts – to inhibit XO was determined. The stock solutions of xanthine (substrate) and uric acid (product) (1.5 mM) were prepared in an NaOH aqueous solution (1 M). The working solutions of these compounds (150 μM) were prepared by dilution of stock solutions with a phosphate buffer (10 mM, pH 7.7). An enzyme solution with an activity of approximately 0.5 U/mL was prepared in the same phosphate buffer. The same buffer was also used to dilute stock solutions of phytochemical standards and S. fruticosa extracts. The diluted samples with different concentrations of standard or plant extract (85 µL) were mixed with an XO solution (30 µL) and preincubated for 15 min at 25 °C, followed by the addition of 60 µL of a 150 µM xanthine solution (substrate). The mixtures were incubated for 60 min at 25 °C, then 25 µL of HCl solution (1 M) was added to stop the enzymatic reaction.
The samples were analyzed using an HPLC-PAD system (1200 series, Agilent Technologies, Wilmington, DE, USA) equipped with a Kinetex® column (150 × 4.6 mm, 5 µm, Phenomenex). A two-component mobile phase was used, in which component A was water acidified with formic acid (1%) and component B was methanol. The mobile phase was pumped at flow rate of 1 mL/min according to the gradient elution program: 0 min – 100% A, 8 min – 18% B, 12 min – 80% B, 18 min – 100% B and finally, the initial conditions were held for 5 min as a re-equilibration step. The injection volume was 30 μL. The inhibition of the XO enzyme was expressed as an IC50 value, meaning the mass of standard or dry weight of the sample (μg) that could reduce enzyme activity to 50%. Enzyme activity was calculated as the percentage of the uric acid peak area (RT 3.1 min) that was formed in the presence of extracts compared to the control sample without the addition of extracts.

[2] = Total antioxidant activity, ABTS, DPPH and F–C tests taken together; settings: reference antioxidant trolox
Description: The presented study compared the results of the three most popular spectrophotometric tests using ABTS, DPPH and Folin–Ciocalteu (F–C) reagents. ABTS and DPPH assays are used widely to determine free radical scavenging activity of extracts, as are pure compounds. For S. fruticosa extracts, the calculated antioxidant activity describes the number of ABTS or DPPH molecules reduced by antioxidants derived from 1 g of dried material after 10 min of reaction. These values were calculated in the linear range of the method and expressed as the slope of the line describing the relationship between the number of reduced millimoles of oxidants and various amounts of tested samples – as grams of dry matter in reaction mixtures (Fig. 2b).
The study also includes the method with the Folin–Ciocalteu reagent. It consists in the transfer of electrons in an alkaline environment from compounds with active hydroxyl groups to phosphomolybdic phosphotungstic acid complexes. The reducing capacity in this case was expressed as the number of millimoles of gallic acid equivalents, that formed blue complex and were derived from 1 g of dry matter of the plant. […]
The antioxidant activity of – caffeic acid, carnosic acid, carnosol, rosmarinic acid, salvianolic acid B, scutellarin and S. fruticosa extracts – was determined by spectrophotometric tests using ABTS, DPPH and Folin–Ciocalteu (F–C) reagents. […] For tests with radicals, the data were used to generate a plot of linear dependence between the different content of tested standards or S. fruticosa samples calculated as gram of dry weight present in the reaction mixtures and the number of scavenged millimoles of ABTS or DPPH radical. […] For the F–C test the results were calculated using the calibration curve of gallic acid. The antioxidant activity of the tested samples was expressed as a slope of the line that represents the relationship between the mass of standards or plant material [g] and amount of gallic acid equivalents [mmol] present in reaction mixtures after 60 min.

With O=C(O)/C=C/c1ccc(O)c(O)c1 [Caffeic acid] the “IC50, mass of standard or dry weight of sample capable of reducing XO activity to 50%” value [1] was 0.1 µg, the IC50 [1] was 2.8 µM and the “Antioxidant activity compared with trolox” value [2] was “more efficient than trolox”.

With O=C(/C=C/c1ccc(O)c(O)c1)O[C@H](Cc1ccc(O)c(O)c1)C(=O)O [rosmarinic acid, Rosmarinic acid] the IC50 [1] was 43.8 µM and the “Antioxidant activity compared with trolox” value [2] was “more efficient than trolox”.

In the case of Salvianolic acid B, the “Antioxidant activity compared with trolox” value [2] is reported as “more efficient than trolox”.

With Oc1ncnc2[nH]ncc12 [allopurinol] the “IC50, mass of standard or dry weight of sample capable of reducing XO activity to 50%” value [1] was 0.15 µg and the IC50 [1] was 5.5 µM.
